Test results from the supplement of paper PMC9663587.

Columns and labels:
ABT-737 = compound: CN(C)CC[C@H](CSc1ccccc1)Nc1ccc(S(=O)(=O)NC(=O)c2ccc(N3CCN(Cc4ccccc4-c4ccc(Cl)cc4)CC3)cc2)cc1[N+](=O)[O-] [ABT-737]
Saracatinib/AZD0530 = compound: CN1CCN(CCOc2cc(OC3CCOCC3)c3c(Nc4c(Cl)ccc5c4OCO5)ncnc3c2)CC1 [Saracatinib/AZD0530]
Flavopiridol [1] = compound: T1, CN1CC[C@H](c2c(O)cc(O)c3c(=O)cc(-c4ccccc4Cl)oc23)[C@H](O)C1 [Flavopiridol]
[2] = compound: CO[C@@H](C)Cn1c(=O)n(C)c2cnc3ccc(-c4cncc(C(C)(C)O)c4)cc3c21
Taselisib/GDC0032 = compound: Cc1nc(-c2cn3c(n2)-c2ccc(-c4cnn(C(C)(C)C(N)=O)c4)cc2OCC3)n(C(C)C)n1 [Taselisib/GDC0032]
YKL-5-124 = compound: C=CC(=O)Nc1ccc(C(=O)Nc2[nH]nc3c2CN(C(=O)N[C@H](CN(C)C)c2ccccc2)C3(C)C)cc1 [YKL-5-124]; experiment: GR value, 72 h; higher = faster growth (1 = untreated, <0 = killing);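 further: breast cancer and non-malignant breast epithelial lines, nine half-log doses, viable cells counted by Hoechst and LIVE/DEAD dye imaging versus time-zero plates and DMSO controls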
BSJ-03-123 = compound: CC(=O)c1c(C)c2cnc(Nc3ccc(N4CCN(CCOCCOCCOCCNC(=O)COc5cccc6c5C(=O)N(C5CCC(=O)NC5=O)C6=O)CC4)cn3)nc2n(C2CCCC2)c1=O [BSJ-03-123]; experiment: as above
[3] = compound: CC(=O)c1c(C)c2cnc(Nc3ccc(N4CCNCC4)cn3)nc2n(C2CCCC2)c1=O; experiment: as above
[4] = compound: CCN1CCN(Cc2ccc(Nc3ncc(F)c(-c4cc(F)c5nc(C)n(C(C)C)c5c4)n3)nc2)CC1; experiment: as above
Neratinib/HKI272 = compound: CCOc1cc2ncc(C#N)c(Nc3ccc(OCc4ccccn4)c(Cl)c3)c2cc1NC(=O)/C=C/CN(C)C [Neratinib/HKI272]; experiment: as above
[5] = compound: CCc1cnn2c(NCc3ccc[n+]([O-])c3)cc(N3CCCC[C@H]3CCO)nc12; experiment: as above
LEE011/Ribociclib = compound: CN(C)C(=O)c1cc2cnc(Nc3ccc(N4CCNCC4)cn3)nc2n1C1CCCC1 [LEE011/Ribociclib]; experiment: as above
THZ531 = compound: CN(C)C/C=C/C(=O)Nc1ccc(C(=O)N2CCC[C@@H](Nc3ncc(Cl)c(-c4c[nH]c5ccccc45)n3)C2)cc1 [THZ531]; experiment: as above
THZ1 = compound: CN(C)C/C=C/C(=O)Nc1ccc(C(=O)Nc2cccc(Nc3ncc(Cl)c(-c4c[nH]c5ccccc45)n3)c2)cc1 [THZ1]; experiment: as above
Flavopiridol [6] = compound: T1, Flavopiridol; experiment: as above
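Wherever GR50, 72 h is given: breast cancer and non-malignant breast epithelial cell lines, Deep Dye Drop or Dye Drop imaging, nine half-log doses, GR normalized to time-zero plates and DMSO-only controls.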

AU565
GR50, 72 h (ABT-737): 7.24 µM | GR50, 72 h (Saracatinib/AZD0530): 4.82 µM | GR50, 72 h (Flavopiridol [1]): 0.09 µM | GR50, 72 h [2]: 0.00478 µM | GR50, 72 h (Taselisib/GDC0032): 0.00379 µM | GR value (YKL-5-124; 0.001 µM): 0.305 GR | GR value (YKL-5-124; 0.003162 µM): 0.28 GR | GR value (YKL-5-124; 0.01 µM): 0.128 GR | GR value (YKL-5-124; 0.03162 µM): 0.0651 GR | GR value (YKL-5-124; 0.1 µM): -0.0212 GR | GR value (YKL-5-124; 0.3162 µM): -0.0588 GR | GR value (YKL-5-124; 1 µM): -0.111 GR | GR value (YKL-5-124; 3.162 µM): -0.172 GR | GR value (YKL-5-124; 10 µM): -0.563 GR | GR value (BSJ-03-123; 0.001 µM): 0.962 GR | GR value (BSJ-03-123; 0.003162 µM): 0.875 GR | GR value (BSJ-03-123; 0.01 µM): 0.791 GR | GR value (BSJ-03-123; 0.03162 µM): 0.759 GR | GR value (BSJ-03-123; 0.1 µM): 0.833 GR | GR value (BSJ-03-123; 0.3162 µM): 0.775 GR | GR value (BSJ-03-123; 1 µM): 0.41 GR | GR value (BSJ-03-123; 3.162 µM): 0.52 GR | GR value (BSJ-03-123; 10 µM): -0.386 GR | GR value ([3]; 0.0003162 µM): 1.04 GR | GR value ([3]; 0.001 µM): 1.05 GR | GR value ([3]; 0.003162 µM): 1.01 GR | GR value ([3]; 0.01 µM): 0.919 GR | GR value ([3]; 0.03162 µM): 0.73 GR | GR value ([3]; 0.1 µM): 0.579 GR | GR value ([3]; 0.3162 µM): 0.39 GR | GR value ([3]; 1 µM): 0.301 GR | GR value ([3]; 3.162 µM): 0.154 GR | GR value ([4]; 0.001 µM): 0.876 GR | GR value ([4]; 0.003162 µM): 0.791 GR | GR value ([4]; 0.01 µM): 0.605 GR | GR value ([4]; 0.03162 µM): 0.382 GR | GR value ([4]; 0.1 µM): 0.268 GR | GR value ([4]; 0.3162 µM): 0.223 GR | GR value ([4]; 1 µM): 0.114 GR | GR value ([4]; 3.162 µM): 0.0465 GR | GR value ([4]; 10 µM): -0.328 GR | GR value (Neratinib/HKI272; 0.0003162 µM): 0.834 GR | GR value (Neratinib/HKI272; 0.001 µM): 0.534 GR | GR value (Neratinib/HKI272; 0.003162 µM): 0.172 GR | GR value (Neratinib/HKI272; 0.01 µM): -0.145 GR | GR value (Neratinib/HKI272; 0.03162 µM): -0.318 GR | GR value (Neratinib/HKI272; 0.1 µM): -0.388 GR | GR value (Neratinib/HKI272; 0.3162 µM): -0.506 GR | GR value (Neratinib/HKI272; 1 µM): -0.585 GR | GR value (Neratinib/HKI272; 3.162 µM): -0.614 GR | GR value ([5]; 0.0001 µM): 0.954 GR | GR value ([5]; 0.0003162 µM): 0.978 GR | GR value ([5]; 0.001 µM): 0.974 GR | GR value ([5]; 0.003162 µM): 0.928 GR | GR value ([5]; 0.01 µM): 0.19 GR | GR value ([5]; 0.03162 µM): -0.568 GR | GR value ([5]; 0.1 µM): -0.734 GR | GR value ([5]; 0.3162 µM): -0.746 GR | GR value ([5]; 1 µM): -0.767 GR | GR value (LEE011/Ribociclib; 0.001 µM): 0.82 GR | GR value (LEE011/Ribociclib; 0.003162 µM): 0.739 GR | GR value (LEE011/Ribociclib; 0.01 µM): 0.645 GR | GR value (LEE011/Ribociclib; 0.03162 µM): 0.742 GR | GR value (LEE011/Ribociclib; 0.1 µM): 0.569 GR | GR value (LEE011/Ribociclib; 0.3162 µM): 0.546 GR | GR value (LEE011/Ribociclib; 1 µM): 0.487 GR | GR value (LEE011/Ribociclib; 3.162 µM): 0.425 GR | GR value (LEE011/Ribociclib; 10 µM): 0.227 GR | GR value (THZ531; 0.0001 µM): 0.925 GR | GR value (THZ531; 0.0003162 µM): 0.936 GR | GR value (THZ531; 0.001 µM): 0.948 GR | GR value (THZ531; 0.003162 µM): 0.994 GR | GR value (THZ531; 0.01 µM): 1.05 GR | GR value (THZ531; 0.03162 µM): 0.786 GR | GR value (THZ531; 0.1 µM): 0.0998 GR | GR value (THZ531; 0.3162 µM): -0.343 GR | GR value (THZ531; 1 µM): -0.521 GR | GR value (THZ1; 0.0001 µM): 0.903 GR | GR value (THZ1; 0.0003162 µM): 1.02 GR | GR value (THZ1; 0.001 µM): 0.972 GR | GR value (THZ1; 0.003162 µM): 0.84 GR | GR value (THZ1; 0.01 µM): 0.797 GR | GR value (THZ1; 0.03162 µM): 0.225 GR | GR value (THZ1; 0.1 µM): -0.325 GR | GR value (THZ1; 0.3162 µM): -0.547 GR | GR value (THZ1; 1 µM): -0.653 GR | GR value (Flavopiridol [6]; 0.0001 µM): 1.11 GR | GR value (Flavopiridol [6]; 0.0003162 µM): 1.02 GR | GR value (Flavopiridol [6]; 0.001 µM): 0.906 GR | GR value (Flavopiridol [6]; 0.003162 µM): 0.852 GR | GR value (Flavopiridol [6]; 0.01 µM): 1 GR | GR value (Flavopiridol [6]; 0.03162 µM): 0.858 GR | GR value (Flavopiridol [6]; 0.1 µM): 0.472 GR | GR value (Flavopiridol [6]; 0.3162 µM): -0.198 GR | GR value (Flavopiridol [6]; 1 µM): -0.69 GR
